One molecule from US9763454B2, “Composition comprising a biological control agent and a fungicide” (Bayer CropScience AG, priority 2012, dated 2017) can be followed below.

For one experiment, the system named is Rhizoctonia solani. Nature of the experiment: Rhizoctonia test (cotton)/Drench. The following applies: greenhouse, 30 ml drench per pot, 7 days at 20° C., BioAct 4 × 10^11 cfu/seed, F70 1.2 mg ai/seed. The experiment is classed as in vivo. The method, then:
(§1) The test is performed under greenhouse conditions.
Perlite was incubated with mycelia of Rhizoctonia solani. Infected perlite was scattered in a 1:1 mix of steamed field soil and sand and was incubated in a dark box in greenhouse for 6 days. After soil incubation, cotton seeds were sown in 6*6 cm pots containing this soil mixture.
Compounds and compound combinations were suspended and diluted with water to the desired concentrations. 30 ml of compound or compound combination preparation were drenched on each pot. Pots were incubated in the greenhouse for 7 days at 20° C.
Assessment consisted of counting of emerged seedlings. 0% means an efficacy which corresponds to that of the untreated control, while an efficacy of 100% means that all seedlings have emerged.

Experiment [1] has as its system cotton (variety Vicky) seedlings. Nature of the experiment: Hypocotyl growth enhancement (cotton)/Drench. It counts as in vivo. The following applies: 7 days after sowing. The method, then:
as §1
Five cotton (variety Vicky) seeds were sown in a 6*6 cm pot containing 1:1 mix of steamed field soil and sand. Compounds and compound combinations were suspended and diluted with water to the desired concentrations. Just after sowing, 30 ml of compound or compound combination preparation were drenched on each pot. The pots (three replications per treatment) were placed in randomized arrangement in the greenhouse and kept at 20° C. for 7 days.
Length of hypocotyls was measured at 7 days after sowing.

Regarding `O=C(NCCc1ncc(C(F)(F)F)cc1Cl)c1ccccc1C(F)(F)F` [F70 fluopyram, fluopyram], the “Efficacy in % found (activity found; emerged seedlings)” value with Rhizoctonia solani came to 0%. For the same molecule, the “Seedling/hypocotyl length compared in words” value in experiment [1] (drench) was “significantly higher than untreated”. For the same molecule, the “Hypocotyl (length, average of 15 seedlings)” value in experiment [1] (greenhouse, 30 ml drench per pot, 20° C., BioAct 4 × 10^11 cfu/plant, F70 1.2 mg ai/plant, untreated 5.3) is listed as 5.9 cm.
